# Source: the Kinase Knowledgebase extract (Sharma et al. 2016)
# Biological target: PIK3CA (human) (UniProt P42336)
# Test: Inhibition of PIK3CA Kinase Activity
# PIK3CA (human), sequence (P42336 whole entry, looked up): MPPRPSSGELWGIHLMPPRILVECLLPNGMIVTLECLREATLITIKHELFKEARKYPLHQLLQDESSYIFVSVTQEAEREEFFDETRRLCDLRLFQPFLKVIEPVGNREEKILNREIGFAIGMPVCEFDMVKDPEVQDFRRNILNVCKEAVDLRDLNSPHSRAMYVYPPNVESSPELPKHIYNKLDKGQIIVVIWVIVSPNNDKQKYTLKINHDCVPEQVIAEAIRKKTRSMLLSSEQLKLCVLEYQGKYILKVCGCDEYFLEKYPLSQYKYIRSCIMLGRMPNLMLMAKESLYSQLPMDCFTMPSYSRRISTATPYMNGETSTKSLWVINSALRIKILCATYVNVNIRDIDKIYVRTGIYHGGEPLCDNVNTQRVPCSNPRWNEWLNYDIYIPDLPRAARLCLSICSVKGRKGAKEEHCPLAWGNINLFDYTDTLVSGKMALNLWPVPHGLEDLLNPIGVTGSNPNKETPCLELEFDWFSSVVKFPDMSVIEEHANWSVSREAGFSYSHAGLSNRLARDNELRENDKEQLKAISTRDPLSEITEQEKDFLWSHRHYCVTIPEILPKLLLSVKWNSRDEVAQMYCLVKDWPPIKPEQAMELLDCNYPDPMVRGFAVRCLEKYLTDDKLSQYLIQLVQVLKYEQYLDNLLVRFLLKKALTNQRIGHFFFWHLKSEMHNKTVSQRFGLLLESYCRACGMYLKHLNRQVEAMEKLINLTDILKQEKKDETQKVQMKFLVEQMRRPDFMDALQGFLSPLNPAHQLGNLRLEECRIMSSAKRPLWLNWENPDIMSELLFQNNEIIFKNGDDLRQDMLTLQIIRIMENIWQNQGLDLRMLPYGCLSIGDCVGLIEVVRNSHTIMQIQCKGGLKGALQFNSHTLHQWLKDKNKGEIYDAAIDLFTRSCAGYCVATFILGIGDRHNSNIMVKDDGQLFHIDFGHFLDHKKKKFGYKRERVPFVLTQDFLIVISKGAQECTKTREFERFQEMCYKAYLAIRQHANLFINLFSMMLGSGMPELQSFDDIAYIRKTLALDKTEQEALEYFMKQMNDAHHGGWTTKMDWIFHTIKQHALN
row,Structure (SMILES),IC50
1,COc1ccc2c(N3CCOc4ccc(-c5ccc(N)cc5)cc4C3)nc(C)nc2c1,250 to 1000 nM
2,Cc1nc2ccc(-c3ccc4c(c3)CN(c3ncnc5c(C#N)c6n(c35)CCCC6)CCO4)cc2[nH]1,50 to 250 nM
3,Cc1nc2cc(-c3ccc4c(c3)CN(c3nc(CN(C)C)nc(C)c3Cl)CCO4)ccc2[nH]1,50 to 250 nM
4,CN(C)Cc1nc2c(c(N3CCOc4ccc(-c5ccc(N)nc5)cc4C3)n1)CC(C)(C)CC2,50 to 250 nM
5,Cc1nc2ccc(-c3ccc4c(c3)CN(c3ncnc5c3CCN(Cc3ccccc3)C5)CCO4)cc2[nH]1,250 to 1000 nM
6,Cc1nc2ccc(-c3ccc4c(c3)CN(c3ncnc5cc(Br)ccc35)CCO4)cc2[nH]1,50 to 250 nM
7,COc1ccc2nc(Cl)nc(N3CCOc4ccc(-c5ccc6nc(C)[nH]c6c5)cc4C3)c2c1,250 to 1000 nM
8,c1cc(N2CCOc3ccc(-c4cnc5nc[nH]c5c4)cc3C2)ncn1,250 to 1000 nM
9,Cc1nc2c(c(N3CCOc4ccc(-c5cnc(N)c(S(=O)(=O)N(C)C)c5)cc4C3)n1)CC(C)(C)CC2,50 to 250 nM
10,COc1ccc2c(N3CCOc4ccc(-c5ccc(-c6nc7ccccc7[nH]6)cc5)cc4C3)nc(C)nc2c1,250 to 1000 nM
11,Cc1nc(N2CCOc3ccc(-c4ccc(N)nc4)cc3C2)c2ccccc2n1,250 to 1000 nM
12,Cc1nc2ncc(-c3ccc4c(c3)CN(c3ncnc(C)c3Br)CCO4)cc2[nH]1,50 to 250 nM
13,CC1(C)CCc2ncnc(N3CCOc4ccc(-c5cnc(Cl)c(S(=O)(=O)N6CC[C@H](N)C6)c5)cc4C3)c2C1,250 to 1000 nM
14,CCc1c(C)nc(C)nc1N1CCOc2ccc(-c3cnc4nc(C)[nH]c4c3)cc2C1,50 to 250 nM
15,CC1(C)CCc2ncnc(N3CCOc4ccc(-c5cnc(N)c(NS(C)(=O)=O)c5)cc4C3)c2C1,50 to 250 nM
16,Cc1ncnc(N2CCOc3ccc(-c4ccc5sc(N)nc5c4)cc3C2)c1Cc1ccc(F)cc1,50 to 250 nM
17,Cc1nc2ncc(-c3ccc4c(c3)CN(c3nc(CN5CCC(F)(F)C5)nc5c3CC(C)(C)CC5)CCO4)cc2[nH]1,50 to 250 nM
18,COC(=O)Nc1nc2ccc(-c3ccc4c(c3)CN(c3ccncn3)CCO4)cc2[nH]1,250 to 1000 nM

row,Structure (SMILES),IC50
1,Cc1nc2ccc(-c3ccc4c(c3)CN(c3ncnc(Nc5ccccc5)c3C)CCO4)cc2[nH]1,50 to 250 nM
2,Cc1nc2ccc(-c3ccc4c(c3)CN(c3ncncc3C)CCO4)cc2[nH]1,250 to 1000 nM
3,c1ccc2c(N3CCOc4ccc(-c5ccc6scnc6c5)cc4C3)ccnc2c1,250 to 1000 nM
4,Cc1ncnc(N2CCOc3ccc(-c4cc5[nH]c(N)nc5cn4)cc3C2)c1Cc1ccc(F)cc1,50 to 250 nM
5,Cc1nc2ccc(-c3ccc4c(c3)CN(c3ncnc5c(C)cccc35)CCO4)cc2[nH]1,10 to 50 nM
6,COCCNCc1nc2c(c(N3CCOc4ccc(-c5cnc6nc(C)[nH]c6c5)cc4C3)n1)CC(C)(C)CC2,10 to 50 nM
7,Cc1nc2ncc(-c3ccc4c(c3)CN(c3ncncc3C)CCO4)cc2[nH]1,250 to 1000 nM
8,CC1(C)CCc2ncnc(N3CCOc4ccc(-c5cnc6nc[nH]c6c5)cc4C3)c2C1,10 to 50 nM
9,CNC(=O)c1ccc(-c2ccc3c(c2)CN(c2ncnc(C)c2Cc2ccc(F)cc2)CCO3)cc1,10 to 50 nM
10,CC1(C)CCc2ncnc(N3CCOc4ccc(-c5cncc(NS(C)(=O)=O)c5)cc4C3)c2C1,50 to 250 nM
11,CC1=CC(C)(C)Cc2c1ncnc2N1CCOc2ccc(-c3cnc(N)c(S(=O)(=O)N4CC[C@@H](N)C4)c3)cc2C1,50 to 250 nM
12,CC1(C)CCc2ncnc(N3CCOc4ccc(-c5cnc(N)c(S(=O)(=O)NC6CCC6)c5)cc4C3)c2C1,10 to 50 nM
13,Cc1c(NC2CCOCC2)ncnc1N1CCOc2ccc(-c3cnc4nc(C5CC5)[nH]c4c3)cc2C1,50 to 250 nM
14,COc1cccc2c(N3CCOc4ccc(-c5ccc6nc(C)[nH]c6c5)cc4C3)ncnc12,10 to 50 nM
15,Cc1nc2ccc(-c3ccc4c(c3)CN(c3nc(C(C)(C)O)nc5c3CC(C)(C)CC5)CCO4)cc2[nH]1,50 to 250 nM
16,COc1ccc2c(N3CCOc4ccc(-c5cccc(C(=O)O)c5)cc4C3)nc(C)nc2c1,250 to 1000 nM
17,CCOc1ccc2ncnc(N3CCOc4ccc(-c5ccc6nc(C)[nH]c6c5)cc4C3)c2c1,50 to 250 nM

# The remaining lines, values ahead:
row,IC50,Structure (SMILES)
1,≤ 10 nM,CCNc1nc2ncc(-c3ccc4c(c3)CN(c3ncnc(C)c3Cc3ccc(F)cc3)CCO4)cc2[nH]1
2,≤ 10 nM,COC(=O)Nc1nc2ncc(-c3ccc4c(c3)CN(c3ncnc5c3CC(C)(C)C=C5)CCO4)cc2[nH]1
3,10 to 50 nM,CC1(C)CCc2ncnc(N3CCOc4ccc(-c5cnc6sc(N)nc6c5)cc4C3)c2C1
4,10 to 50 nM,Cc1nc2ccc(-c3ccc4c(c3)CN(c3nc(CNC5CCC5)nc5c3CC(C)(C)CC5)CCO4)cc2[nH]1
5,10 to 50 nM,Cc1nc2ncc(-c3ccc4c(c3)CN(c3nc(CNC5CC5)nc5c3CC(C)(C)CC5)CCO4)cc2[nH]1
6,10 to 50 nM,CCNc1nc2ccc(-c3ccc4c(c3)CN(c3nc(C)nc5cc(OC)c(OC)cc35)CCO4)cc2[nH]1
7,10 to 50 nM,Cc1nc2ccc(-c3ccc4c(c3)CN(c3ncnc(C)c3Cc3ccc(Cl)cc3)CCO4)cc2[nH]1
8,10 to 50 nM,CC1(C)CCc2ncnc(N3CCOc4ccc(-c5ccc(-c6ncc[nH]6)cc5)cc4C3)c2C1
9,10 to 50 nM,Cc1nc2ccc(-c3ccc4c(c3)CN(c3ncnc5ccc(Cl)cc35)CCO4)cc2[nH]1
10,≤ 10 nM,COc1ccc2c(N3CCOc4ccc(-c5ccc6nc[nH]c6c5)cc4C3)nc(C)nc2c1
11,10 to 50 nM,CC1(C)CCc2ncnc(N3CCOc4ccc(-c5cnc(N)c(S(=O)(=O)NC[C@@H]6CCNC6)c5)cc4C3)c2C1
12,10 to 50 nM,Cc1ncnc(N2CCOc3ccc(-c4ccc5nc(N)[nH]c5c4)cc3C2)c1Cc1ccc(F)cc1
13,≤ 10 nM,CC[C@H]1CCc2c(ncnc2N2CCOc3ccc(-c4cnc5nc(C)[nH]c5c4)cc3C2)C1
14,10 to 50 nM,c1ccc2c(N3CCOc4ccc(-c5ccc6nc[nH]c6c5)cc4C3)ccnc2c1
15,10 to 50 nM,CCC(N)CNS(=O)(=O)c1cc(-c2ccc3c(c2)CN(c2ncnc4c2CC(C)(C)CC4)CCO3)cnc1N (centres undefined)
16,10 to 50 nM,CCNc1nc2ccc(-c3ccc4c(c3)CN(c3ncnc(Nc5ccccc5)c3C)CCO4)cc2[nH]1
17,10 to 50 nM,Cc1nc2cc(-c3ccc4c(c3)CN(c3nc(CNCCF)nc(C)c3C(C)C)CCO4)ccc2[nH]1
18,10 to 50 nM,CCNc1nc2ccc(-c3ccc4c(c3)CN(c3ncnc5c3CC(C)(C)CC5)CCO4)cc2[nH]1
19,10 to 50 nM,CC1(C)CCc2ncnc(N3CCOc4ccc(-c5cnc(N)c(S(C)(=O)=O)c5)cc4C3)c2C1
20,≤ 10 nM,CC[C@H]1CCc2c(nc(C)nc2N2CCOc3ccc(-c4cnc5nc(C)[nH]c5c4)cc3C2)C1
21,10 to 50 nM,CC1(C)CCc2ncnc(N3CCOc4ccc(-c5cnc(N)c(S(=O)(=O)N6CCC6)c5)cc4C3)c2C1
22,10 to 50 nM,CC1(C)CCc2ncnc(N3CCOc4ccc(-c5cnc(N)c(S(=O)(=O)N6CC(N)C6)c5)cc4C3)c2C1
23,≤ 10 nM,Cc1ncnc(N2CCOc3ccc(-c4cnc5nc(N)[nH]c5c4)cc3C2)c1Cc1ccc(F)cc1
24,≤ 10 nM,Cc1nc2ccc(-c3ccc4c(c3)CN(c3ccnc(C)c3Cc3cccc(F)c3)CCO4)cc2[nH]1
25,≤ 10 nM,COC(=O)Nc1nc2ccc(-c3ccc4c(c3)CN(c3nc(CN(C)C)nc5c3CC(C)(C)CC5)CCO4)cc2[nH]1
26,≤ 10 nM,COc1ncc(-c2ccc3c(c2)CN(c2ncnc4c2CC(C)(C)CC4)CCO3)cc1NS(C)(=O)=O
27,≤ 10 nM,CCN(C)Cc1nc2c(c(N3CCOc4ccc(-c5cnc6nc(C)[nH]c6c5)cc4C3)n1)CC(C)(C)CC2
28,≤ 10 nM,Nc1nc2ncc(-c3ccc4c(c3)CN(c3ncnc5ccc(Br)cc35)CCO4)cc2[nH]1
29,≤ 10 nM,Cc1nc2ncc(-c3ccc4c(c3)CN(c3nc(CN(C)C)nc5c3CC(C)(C)CC5)CCO4)cc2[nH]1
